{"source": "patent US6413970B1", "about": "“Pharmaceutical composition for treating viral diseases” (UCB S.A., priority 1996, dated 2002)", "format_in_all_cases": "cell-based", "key": {"[1]": {"tested_on": "respiratory syncytial virus (RSV)", "assay": "RSV-specific mRNA (SH gene) expression in RSV-treated human PMN, RT-PCR", "settings": "human PMN 1×10^6/ml, RSV 1 m.o.i., cetirizine 100-, 0.1-, 0.01 μg/10^6 PMN, 2 hours and 16 hours at 37° C., FIG. 2", "method": "(§1) Human granulocytes were isolated from 200 ml of heparinized blood (15 U ml) from healthy donors separated on a Ficoll-metrizoate gradient followed by dextran sedimentation and washed twice at 300 g. This method led to more than 95% pure PMN. The cells were diluted to a final density of 1×10^6 PMN.\n(§2) Virus preparation was performed as described by R. ARNOLD et al. in Immunology 82, 126-133 (1994). For crude preparation, respiratory syncytial virus (RSV), Long Stain (ATCC), was grown and titrated in HEP-2 cells. The RSV titre was determined in a plaque-forming unit (PFU) assay. The stock titre of the virus pool used in the study was 5×10^6 PFU/ml. The stock solution was stored at −70° C. until use. Interleukin-8 (IL-8) levels were under the detection limit in the stock solution, as analysed by enzyme-linked immuno sorbent assay (ELISA). The absence of mycoplasma infection was verified by microplasma-specific PCR. […]\nThe analysis of RSV-specific genomic RNA was performed by coupled reverse transcription and polymerase chain reaction PCR detection of RSV-genomic-RNA encoding for the small hydrophobic protein (SH) of RSV as described previously by R. ARNOLD et al. in Immunology 82, 126-133 (1994). […] Expression of genomic RSVSH RNA was analysed after reverse transcription with sense primers and PCR amplification of the cDNA transcripts. […]"}, "[2]": {"tested_on": "RSV-induced IL-8 release from human PMN", "assay": "RSV-induced IL-8 release from human PMN, ELISA", "method": "as §1, §2\n(§3) PMN were suspended in RPMI medium at a concentration of 1×10^6/ml. […] Culture supernatants were collected and analyzed for their IL-8 content. IL-8 release was determined using a sandwich ELISA according to the method indicated hereinbefore. […] After addition of p-nitrophenylphosphate (15 mg/ml) for quantification, an ELISA reader and for calculation Mikrotek software (SLT Labinstruments, Crailsheim, Germany) were used. […]"}, "[3]": {"tested_on": "ongoing IL-8 release induced by RSV, human PMN", "assay": "Ongoing IL-8 release induced by RSV in human PMN, delayed cetirizine addition, ELISA", "method": "as §1, §2, §3"}}, "note": "Counter-ions that a name gives are not always drawn.", "data": [{"smiles": "O=C(O)COCCN1CCN(C(c2ccccc2)c2ccc(Cl)cc2)CC1", "note": "(racemic) [cetirizine dihydrochloride, 2-[2-[4-[(4-chlorophenyl)phenylmethyl]-1-piperazinyl]ethoxy]-acetic acid]", "values": [{"measurement": "RSV-specific mRNA expression of the small hydrophobic (SH) gene", "setting": "[1]", "value": "inhibits RSV-specific mRNA expression"}, {"measurement": "RSV-induced IL-8 release at the stated concentration range", "setting": "[2]; cetirizine at concentrations <0.01 μg/ml but >100 μg/ml (so in the source), similar after incubation up to 24 hours and RSV up to 5 m.o.i.", "value": "significant reduction in RSV-induced IL-8 release"}, {"measurement": "RSV-induced IL-8 release", "setting": "[2]; human PMN 1×10^6/ml, total incubation 2 hours at 37° C., cetirizine 100-0.01 μg/ml, dose-dependent, 8 independent experiments, FIG. 3", "value": "down-regulated the RSV-induced IL-8 release"}, {"measurement": "Down regulation of RSV-induced IL-8 release, concentration range of strongest effect", "setting": "[3]; cetirizine concentrations >0.01 μg/ml and <10 μg/ml, strongest when added at the onset of RSV treatment", "value": "most pronounced"}, {"measurement": "ongoing IL-8 release by RSV", "setting": "[3]; human PMN 1×10^6/ml, RSV 1 m.o.i., cetirizine 100 μg, 10 μg, 0.01 μg added immediately, 30, 60 or 90 minutes after onset of RSV treatment, total 2 hours at 37° C., FIG. 4A-D", "value": "down regulates an ongoing IL-8 release by RSV"}]}]}
